In patent US11998539B2, “Substituted aminoquinolones as DGKalpha inhibitors for immune activation” (Bayer Aktiengesellschaft, priority 2019, dated 2024):

Molecular target: DGKα (Homo sapiens (Human), UniProt P23743)
Assay: Human DGKα kinase activity inhibition assay (ADP-Glo)
Format: biochemical
Conditions: recombinant full-length human DGKα, 55 μM ATP, 7 μM 1,2-dioleoyl-sn-glycerol, read-out: IC50 values of examples in in vitro human DGKa kinase activity inhibition assays
Method: Human DGKα Kinase Activity Inhibition Assay
Human DGKα inhibitory activity of compounds of the present invention was quantified employing the human DGKα kinase activity assay as described in the following paragraphs. In essence, the enzyme activity was measured by quantification of the adenosine-di-phosphate (ADP) generated as a co-product of the enzyme reaction via the “ADP-Glo™ Kinase Assay” kit from the company Promega. This detection system works as follows: In a first step the ATP not consumed in the kinase reaction is quantitatively converted to cAMP employing an adenylate cyclase (“ADP-Glo-reagent”), then the adenylate cyclase is stopped and the ADP generated in the kinase reaction converted to ATP, which subsequently generates in a luciferase-based reaction a glow-luminescence signal (“Kinase Detection Reagent”).
C-terminally FLAG-tagged, recombinant full-length human DGKα (expressed in baculovirus infected insect cells, purified using anti-Flag pulldown and size exclusion chromatography as described below, DGKa_hu_1) was used as enzyme. As substrate for the kinase 1,2-dioleoyl-sn-glycerol, reconstituted in octyl-β-D-glucopyranoside micelles, was used. […] Then 35 volumes of 50 mM MOPS buffer (pH 7.4) were added to yield a solution of 0.28 mM 1,2 dioleoyl-sn-glycerol and 200 mM […], which was aliquoted, flash-frozen in liquid nitrogen, and stored at −20° C. until use.
For the assay 50 nl of a 100-fold concentrated solution of the test compound in dimethyl sulfoxide (DMSO, Sigma) was pipetted into either a white 1536-well or a white low-volume 384-well microtiter plate (both Greiner Bio-One, Frickenhausen, Germany).

Sequence of DGKα (P23743 other isoform, or with tags, fused parts or gaps): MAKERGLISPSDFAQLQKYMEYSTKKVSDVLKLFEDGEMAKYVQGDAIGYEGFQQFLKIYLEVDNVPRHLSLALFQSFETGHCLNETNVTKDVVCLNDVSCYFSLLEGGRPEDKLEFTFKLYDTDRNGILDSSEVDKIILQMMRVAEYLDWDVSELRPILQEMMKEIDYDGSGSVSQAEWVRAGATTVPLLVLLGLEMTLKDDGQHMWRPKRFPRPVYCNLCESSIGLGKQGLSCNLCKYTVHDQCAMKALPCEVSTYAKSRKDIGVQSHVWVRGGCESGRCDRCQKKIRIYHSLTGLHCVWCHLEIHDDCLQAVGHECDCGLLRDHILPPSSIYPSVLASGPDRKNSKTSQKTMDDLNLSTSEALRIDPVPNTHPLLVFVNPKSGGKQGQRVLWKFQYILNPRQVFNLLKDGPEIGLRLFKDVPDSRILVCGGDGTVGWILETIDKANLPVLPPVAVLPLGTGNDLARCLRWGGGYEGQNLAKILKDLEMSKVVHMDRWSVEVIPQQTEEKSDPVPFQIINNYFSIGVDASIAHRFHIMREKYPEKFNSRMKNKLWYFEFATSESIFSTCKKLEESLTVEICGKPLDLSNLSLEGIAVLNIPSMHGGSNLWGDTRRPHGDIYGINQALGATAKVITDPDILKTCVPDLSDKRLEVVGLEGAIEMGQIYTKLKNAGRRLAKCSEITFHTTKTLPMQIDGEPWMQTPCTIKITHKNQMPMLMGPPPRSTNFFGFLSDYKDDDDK

Going from `Cn1c(=O)c(C#N)c(N2CCC(c3nc4cc(C(F)(F)F)ccc4s3)CC2)c2ccccc21` [Example 23, 1-methyl-2-oxo-4-{4-[5-(trifluoromethyl)-1,3-benzothiazol-2-yl]piperidin-1-yl}-1,2-dihydroquinoline-3-carbonitrile] to `Cn1c(=O)c(C#N)c(N2CCC(c3nc4ccccc4s3)CC2)c2ccc(Br)cc21` [Example 33, 4-[4-(1,3-benzothiazol-2-yl)piperidin-1-yl]-7-bromo-1-methyl-2-oxo-1,2-dihydroquinoline-3-carbonitrile], the IC50 falls from 0.012 µM to 0.0062 µM (1.9-fold).

First: Cn1c(=O)c(C#N)c(N2CCC(C)(c3nc4cc(C(C)(C)C)ccc4o3)CC2)c2ccccc21 [Example 24, 4-[4-(5-tert-butyl-1,3-benzoxazol-2-yl)-4-methylpiperidin-1-yl]-1-methyl-2-oxo-1,2-dihydroquinoline-3-carbonitrile]
Second: Cn1c(=O)c(C#N)c(N2CCC(C)(c3nc4cc(S(C)(=O)=O)ccc4o3)CC2)c2ccccc21 [Example 25, 4-{4-[5-(methanesulfonyl)-1,3-benzoxazol-2-yl]-4-methylpiperidin-1-yl}-1-methyl-2-oxo-1,2-dihydroquinoline-3-carbonitrile]
The IC50 of the first is 3.7-fold lower: 0.045 µM for the first, 0.168 µM for the second.

First: Cn1c(=O)c(C#N)c(N2CCC(c3nc4c(F)cccc4o3)CC2)c2ccccc21 [Example 26, 4-[4-(4-fluoro-1,3-benzoxazol-2-yl)piperidin-1-yl]-1-methyl-2-oxo-1,2-dihydroquinoline-3-carbonitrile]
Second: Cn1c(=O)c(C#N)c(N2CCC(c3nc4ccccc4o3)CC2)c2ccc(Br)cc21 [Example 27, 4-[4-(1,3-benzoxazol-2-yl)piperidin-1-yl]-7-bromo-1-methyl-2-oxo-1,2-dihydroquinoline-3-carbonitrile]
The IC50 of the first is 5-fold higher: 0.01 µM for the first, 0.002 µM for the second.

`Cn1c(=O)c(C#N)c(N2CCC(c3nc4ccc(Cl)cc4o3)CC2)c2ccc(Br)cc21` [Example 32, 7-bromo-4-[4-(6-chloro-1,3-benzoxazol-2-yl)piperidin-1-yl]-1-methyl-2-oxo-1,2-dihydroquinoline-3-carbonitrile] and `Cn1c(=O)c(C#N)c(N2CCC(c3nc4ccccc4o3)CC2)c2ccc(N3CCCC3=O)cc21` [Example 35, 4-[4-(1,3-benzoxazol-2-yl)piperidin-1-yl]-1-methyl-2-oxo-7-(2-oxopyrrolidin-1-yl)-1,2-dihydroquinoline-3-carbonitrile] are within 1.5-fold of each other in IC50: 0.006 µM for the first, 0.0078 µM for the second.

Compared with `Cn1c(=O)c(C#N)c(N2CCC(c3nc4ccccc4s3)CC2)c2ccc(N3CCCC3=O)cc21` [Example 36, 4-[4-(1,3-benzothiazol-2-yl)piperidin-1-yl]-1-methyl-2-oxo-7-(2-oxopyrrolidin-1-yl)-1,2-dihydroquinoline-3-carbonitrile], `Cn1c(=O)c(C#N)c(N2CCC(c3ccc(N4CCCC4=O)cc3)CC2)c2ccccc21` [Example 59] is 2.8-fold higher in IC50: 0.0083 µM for the first, 0.023 µM for the second. The first is the more potent here.

Going from `Cn1c(=O)c(C#N)c(N2CCC(c3ccc(OCC(F)(F)F)cc3)CC2)c2ccccc21` [Example 37, 1-methyl-2-oxo-4-{4-[4-(2,2,2-trifluoroethoxy)phenyl]piperidin-1-yl}-1,2-dihydroquinoline-3-carbonitrile] to `Cn1c(=O)c(C#N)c(N2CCC(c3ccc(OC(F)(F)F)cc3)CC2)c2ccccc21` [Example 43, 1-methyl-2-oxo-4-{4-[4-(trifluoromethoxy)phenyl]piperidin-1-yl}-1,2-dihydroquinoline-3-carbonitrile], the IC50 rises from 0.0011 µM to 0.011 µM (10-fold).

Going from `CC(C)Oc1ccc(C2CCN(c3c(C#N)c(=O)n(C)c4ccccc34)CC2)cc1` [Example 38, 1-methyl-2-oxo-4-(4-{4-[(propan-2-yl)oxy]phenyl}piperidin-1-yl)-1,2-dihydroquinoline-3-carbonitrile] to `COc1ccc(C2CCN(c3c(C#N)c(=O)n(C)c4ccccc34)CC2)cc1` [Example 41, 4-[4-(4-methoxyphenyl)piperidin-1-yl]-1-methyl-2-oxo-1,2-dihydroquinoline-3-carbonitrile], the IC50 rises from 0.0015 µM to 0.0049 µM (3.3-fold). The first is the more potent here.

`CCCOc1ccc(C2CCN(c3c(C#N)c(=O)n(C)c4ccccc34)CC2)cc1` [Example 42, 1-methyl-2-oxo-4-[4-(4-propoxyphenyl)piperidin-1-yl]-1,2-dihydroquinoline-3-carbonitrile] and `Cn1c(=O)c(C#N)c(N2CCC(c3ccc(Cl)cc3)CC2)c2ccccc21` [Example 54, 4-[4-(4-chlorophenyl)piperidin-1-yl]-1-methyl-2-oxo-1,2-dihydroquinoline-3-carbonitrile] are within 1.5-fold of each other in IC50: 0.011 µM for the first, 0.014 µM for the second.

First: Cn1c(=O)c(C#N)c(N2CCC(c3cccc(C4CC4)c3)CC2)c2ccccc21 [Example 45, 4-[4-(3-cyclopropylphenyl)piperidin-1-yl]-1-methyl-2-oxo-1,2-dihydroquinoline-3-carbonitrile]
Second: Cn1c(=O)c(C#N)c(N2CCC(c3cccc(F)c3)CC2)c2ccccc21 [Example 62, 4-[4-(3-fluorophenyl)piperidin-1-yl]-1-methyl-2-oxo-1,2-dihydroquinoline-3-carbonitrile]
The IC50 of the first is 18-fold lower: 0.0021 µM for the first, 0.038 µM for the second.

`CN(C)c1ccc(C2CCN(c3c(C#N)c(=O)n(C)c4ccccc34)CC2)cc1` [Example 46, 4-{4-[4-(dimethylamino)phenyl]piperidin-1-yl}-1-methyl-2-oxo-1,2-dihydroquinoline-3-carbonitrile] and `CC(C)c1ccc(C2CCN(c3c(C#N)c(=O)n(C)c4ccccc34)CC2)cc1` [Example 47, 1-methyl-2-oxo-4-{4-[4-(propan-2-yl)phenyl]piperidin-1-yl}-1,2-dihydroquinoline-3-carbonitrile] are within 1.5-fold of each other in IC50: 0.0025 µM for the first, 0.003 µM for the second.

Compared with `Cn1c(=O)c(C#N)c(N2CCC(c3ccc(OCc4ccccc4)cc3)CC2)c2ccccc21` [Example 48, 4-{4-[4-(benzyloxy)phenyl]piperidin-1-yl}-1-methyl-2-oxo-1,2-dihydroquinoline-3-carbonitrile], `Cn1c(=O)c(C#N)c(N2CCC(c3ccc(Oc4ccccc4)cc3)CC2)c2ccccc21` [Example 56, 1-methyl-2-oxo-4-[4-(4-phenoxyphenyl)piperidin-1-yl]-1,2-dihydroquinoline-3-carbonitrile] is 5.7-fold higher in IC50: 0.003 µM for the first, 0.017 µM for the second.

Compared with `Cn1ccc2cc(C3CCN(c4c(C#N)c(=O)n(C)c5ccccc45)CC3)ccc21` [Example 50, 1-methyl-4-[4-(1-methyl-1H-indol-5-yl)piperidin-1-yl]-2-oxo-1,2-dihydroquinoline-3-carbonitrile], `COc1cccc(C2CCN(c3c(C#N)c(=O)n(C)c4ccccc34)CC2)c1` [Example 55, 4-[4-(3-methoxyphenyl)piperidin-1-yl]-1-methyl-2-oxo-1,2-dihydroquinoline-3-carbonitrile] is 1.7-fold higher in IC50: 0.0083 µM for the first, 0.014 µM for the second. The first is the more potent here.

First: Cc1cc(F)cc(C2CCN(c3c(C#N)c(=O)n(C)c4ccccc34)CC2)c1 [Example 51, 4-[4-(3-fluoro-5-methylphenyl)piperidin-1-yl]-1-methyl-2-oxo-1,2-dihydroquinoline-3-carbonitrile]
Second: Cn1c(=O)c(C#N)c(N2CCC(c3ccccc3F)CC2)c2ccccc21 [Example 60, 4-[4-(2-fluorophenyl)piperidin-1-yl]-1-methyl-2-oxo-1,2-dihydroquinoline-3-carbonitrile]
The IC50 of the first is 4-fold lower: 0.0083 µM for the first, 0.033 µM for the second.

Compared with `COc1ccccc1C1CCN(c2c(C#N)c(=O)n(C)c3ccccc23)CC1` [Example 52, 4-[4-(2-methoxyphenyl)piperidin-1-yl]-1-methyl-2-oxo-1,2-dihydroquinoline-3-carbonitrile], `Cn1c(=O)c(C#N)c(N2CCC(c3ccccc3)CC2)c2ccccc21` [Example 57, 1-methyl-2-oxo-4-(4-phenylpiperidin-1-yl)-1,2-dihydroquinoline-3-carbonitrile] is 2.5-fold higher in IC50: 0.0088 µM for the first, 0.022 µM for the second.

First: Cn1c(=O)c(C#N)c(N2CCC(c3ccc(-c4ccccc4)cc3)CC2)c2ccccc21 [Example 53, 4-[4-([1,1′-biphenyl]-4-yl)piperidin-1-yl]-1-methyl-2-oxo-1,2-dihydroquinoline-3-carbonitrile]
Second: Cn1c(=O)c(C#N)c(N2CCC(c3ccc(C(F)(F)F)cc3)CC2)c2ccccc21 [Example 61, 1-methyl-2-oxo-4-{4-[4-(trifluoromethyl)phenyl]piperidin-1-yl}-1,2-dihydroquinoline-3-carbonitrile]
The IC50 of the first is 2.8-fold lower: 0.013 µM for the first, 0.037 µM for the second. The first is the more potent here.

Compared with `Cn1c(=O)c(C#N)c(N2CCC(C)(c3ccccc3)CC2)c2ccccc21` [Example 58, 1-methyl-4-(4-methyl-4-phenylpipehdin-1-yl)-2-oxo-1,2-dihydroquinoline-3-carbonitrile], `Cc1c(C#N)cccc1C1CCN(c2c(C#N)c(=O)n(C)c3ccccc23)CC1` [Example 64, 4-[4-(3-cyano-2-methylphenyl)piperidin-1-yl]-1-methyl-2-oxo-1,2-dihydroquinoline-3-carbonitrile] is 28-fold higher in IC50: 0.0026 µM for the first, 0.073 µM for the second. The first is the more potent here.

First: Cn1c(=O)c(C#N)c(N2CCC(c3cccc(N4CCOCC4)c3)CC2)c2ccccc21 [Example 63]
Second: CN1CCN(c2ccc(C3CCN(c4c(C#N)c(=O)n(C)c5ccccc45)CC3)cc2)C(=O)C1 [Example 66]
The IC50 of the first is 2-fold lower: 0.039 µM for the first, 0.078 µM for the second. The first is the more potent here.

For `Cn1c(=O)c(C#N)c(N2CCC(c3ccc(S(C)(=O)=O)cc3)CC2)c2ccccc21` [Example 65, 4-{4-[4-(methanesulfonyl)phenyl]piperidin-1-yl}-1-methyl-2-oxo-1,2-dihydroquinoline-3-carbonitrile], the IC50 was 0.074 µM.
